{"source": "ChEMBL document CHEMBL1255311", "about": "“Evaluation of a 2-pyridone, KRQ-10018, against Mycobacterium tuberculosis in vitro and in vivo” (Antimicrob Agents Chemother, 2008)", "key": {"[1]": {"tested_on": "Mycobacterium tuberculosis", "test": "Antimicrobial activity against Mycobacterium tuberculosis H37Rv at assessed as growth inhibition at […] following 24 days oxygen depletion by Wayne method relative to control", "assay_type": "functional", "parameters": "scale not given: the % may be the effect or the level left"}, "[2]": {"tested_on": "Mycobacterium tuberculosis", "test": "Antimicrobial activity against Mycobacterium tuberculosis Erdman injected into gamma interferon gene knockout C57BL/6 mouse assessed as bacterial load in lung of mouse at 300 mg/kg measured 9 days post drug treatment", "assay_type": "functional"}, "[3]": {"tested_on": "Mycobacterium tuberculosis", "test": "Antimicrobial activity against Mycobacterium tuberculosis Erdman injected into gamma interferon gene knockout C57BL/6 mouse assessed as bacterial load in spleen of mouse at 100 mg/kg measured 9 days post drug treatment", "assay_type": "functional"}, "[4]": {"tested_on": "Mycobacterium tuberculosis", "test": "Antimicrobial activity against Mycobacterium tuberculosis Erdman injected into gamma interferon gene knockout C57BL/6 mouse assessed as bacterial load in spleen of mouse at 300 mg/kg measured 9 days post drug treatment", "assay_type": "functional"}, "[5]": {"test": "Oral bioavailability in mouse at 300 mg/kg, po measured after 30 mins", "assay_type": "ADME, organism-based", "conditions": "in vivo, read-out: Drug uptake"}, "[6]": {"test": "Oral bioavailability in mouse at 300 mg/kg, po measured after 2 hrs", "assay_type": "ADME, organism-based", "conditions": "in vivo, read-out: Drug uptake"}, "Staphylococcus aureus": {"tested_on": "Staphylococcus aureus", "test": "Antimicrobial activity against Staphylococcus aureus ATCC 29213 by broth macrodilution method", "assay_type": "functional"}, "Escherichia coli": {"tested_on": "Escherichia coli", "test": "Antimicrobial activity against Escherichia coli ATCC 25922 by broth macrodilution method", "assay_type": "functional"}, "Pseudomonas aeruginosa": {"tested_on": "Pseudomonas aeruginosa", "test": "Antimicrobial activity against Pseudomonas aeruginosa ATCC 27853 by broth macrodilution method", "assay_type": "functional"}, "[7]": {"tested_on": "Mycobacterium tuberculosis", "test": "Antimicrobial activity against Mycobacterium tuberculosis H37Rv by macrodilution method", "assay_type": "functional"}, "[8]": {"tested_on": "Mycobacterium tuberculosis", "test": "Antimicrobial activity against Mycobacterium tuberculosis H37Rv by alamar blue assay", "assay_type": "functional"}, "[9]": {"tested_on": "Mycobacterium tuberculosis", "test": "Antimicrobial activity against Mycobacterium tuberculosis Erdman injected into gamma interferon gene knockout C57BL/6 mouse assessed as bacterial load in lung of mouse at 100 mg/kg measured 9 days post drug treatment", "assay_type": "functional"}, "[10]": {"tested_on": "Mycobacterium tuberculosis", "test": "Antimicrobial activity against Mycobacterium tuberculosis Erdman injected into gamma interferon gene knockout C57BL/6 mouse assessed as bacterial load in lung of mouse at 25 mg/kg measured 9 days post drug treatment", "assay_type": "functional"}, "[11]": {"tested_on": "Mycobacterium tuberculosis", "test": "Antimicrobial activity against Mycobacterium tuberculosis Erdman injected into gamma interferon gene knockout C57BL/6 mouse assessed as bacterial load in spleen of mouse at 25 mg/kg measured 9 days post drug treatment", "assay_type": "functional"}, "[12]": {"test": "Oral bioavailability in mouse at 25 mg/kg, po measured after 30 mins", "assay_type": "ADME, organism-based", "conditions": "in vivo, read-out: Drug uptake"}, "[13]": {"test": "Oral bioavailability in mouse at 25 mg/kg, po measured after 2 hrs", "assay_type": "ADME, organism-based", "conditions": "in vivo, read-out: Drug uptake"}, "[14]": {"conditions": "Mycobacterium tuberculosis, H37Rv, read-out: MIC"}}, "data": [{"smiles": "COc1c(N2CCNC(C)C2)c(F)cc2c(=O)c(C(=O)O)cn(C3CC3)c12", "note": "(configuration not stated) [GATIFLOXACIN]", "values": [{"measurement": "Activity", "setting": "[1]", "result": 41, "unit": "%"}]}, {"smiles": "CO[C@H]1/C=C/O[C@@]2(C)Oc3c(C)c(O)c4c(O)c(c(/C=N/N5CCN(C6CCCC6)CC5)c(O)c4c3C2=O)NC(=O)/C(C)=C\\C=C\\[C@H](C)[C@H](O)[C@@H](C)[C@@H](O)[C@@H](C)[C@H](OC(C)=O)[C@@H]1C", "note": "[RIFAPENTINE]", "values": [{"measurement": "Activity", "setting": "[1]", "result": 2.5, "unit": "%"}]}, {"smiles": "Cc1c(N2CC3=CCCN[C@H]3C2)c(F)cn2c(=O)c(C(=O)O)cc(C3CC3)c12", "values": [{"measurement": "log10cfu", "setting": "[2]", "result": 6.13}, {"measurement": "log10cfu", "setting": "[3]", "result": 5.92}, {"measurement": "log10cfu", "setting": "[4]", "result": 4.91}, {"measurement": "concentration at 0.5 h", "setting": "[5]", "result": "> 13100", "unit": "ng/mL"}, {"measurement": "concentration at 2 h", "setting": "[6]", "result": 1640, "unit": "ng/mL"}, {"measurement": "Activity", "setting": "[1]", "result": 1.7, "unit": "%"}, {"measurement": "MIC", "setting": "Staphylococcus aureus", "result": "< 0.015", "unit": "µg/mL"}, {"measurement": "MIC", "setting": "Escherichia coli", "result": "< 0.015", "unit": "µg/mL"}, {"measurement": "MIC", "setting": "Pseudomonas aeruginosa", "result": "< 0.015", "unit": "µg/mL"}, {"measurement": "MIC", "setting": "[7]", "result": 0.041, "unit": "µg/mL"}, {"measurement": "MIC", "setting": "[8]; [14]", "result": "< 0.025", "unit": "µg/mL"}, {"measurement": "log10cfu", "setting": "[9]", "result": 7.25}]}, {"smiles": "CN[C@@H]1[C@H](O[C@H]2[C@H](O[C@H]3[C@H](O)[C@@H](O)[C@H](N=C(N)N)[C@@H](O)[C@@H]3N=C(N)N)O[C@@H](C)[C@]2(O)C=O)O[C@@H](CO)[C@H](O)[C@H]1O", "note": "[STREPTOMYCIN]", "values": [{"measurement": "Activity", "setting": "[1]", "result": 4.2, "unit": "%"}]}, {"smiles": "Cc1ncc([N+](=O)[O-])n1CCO", "note": "[METRONIDAZOLE]", "values": [{"measurement": "Activity", "setting": "[1]", "result": 36, "unit": "%"}]}, {"smiles": "CO[C@H]1/C=C/O[C@@]2(C)Oc3c(C)c(O)c4c(O)c(c(/C=N/N5CCN(C)CC5)c(O)c4c3C2=O)NC(=O)/C(C)=C\\C=C\\[C@H](C)[C@H](O)[C@@H](C)[C@@H](O)[C@@H](C)[C@H](OC(C)=O)[C@@H]1C", "note": "[RIFAMPIN]", "values": [{"measurement": "Activity", "setting": "[1]", "result": 5.6, "unit": "%"}]}, {"smiles": "O=C(O)c1cn(C2CC2)c2cc(N3CCNCC3)c(F)cc2c1=O", "note": "[CIPROFLOXACIN]", "values": [{"measurement": "Activity", "setting": "[1]", "result": 83, "unit": "%"}]}, {"smiles": "NNC(=O)c1ccncc1", "note": "[ISONIAZID]", "values": [{"measurement": "log10cfu", "setting": "[10]", "result": 5.8}, {"measurement": "log10cfu", "setting": "[11]", "result": 3.14}, {"measurement": "concentration at 0.5 h", "setting": "[12]", "result": "> 13100", "unit": "ng/mL"}, {"measurement": "concentration at 2 h", "setting": "[13]", "result": 1640, "unit": "ng/mL"}, {"measurement": "Activity", "setting": "[1]", "result": 70, "unit": "%"}, {"measurement": "MIC", "setting": "[8]", "result": 0.041, "unit": "µg/mL"}, {"measurement": "MIC", "setting": "[8]; [14]", "result": 0.048, "unit": "µg/mL"}]}, {"smiles": "COc1c(N2C[C@@H]3CCCN[C@@H]3C2)c(F)cc2c(=O)c(C(=O)O)cn(C3CC3)c12", "note": "[MOXIFLOXACIN]", "values": [{"measurement": "log10cfu", "setting": "[2]", "result": 2.37}, {"measurement": "log10cfu", "setting": "[4]", "result": 2.43}, {"measurement": "concentration at 0.5 h", "setting": "[5]", "result": 19600, "unit": "ng/mL"}, {"measurement": "concentration at 2 h", "setting": "[6]", "result": 9600, "unit": "ng/mL"}, {"measurement": "Activity", "setting": "[1]", "result": 2.5, "unit": "%"}, {"measurement": "MIC", "setting": "[8]", "result": 0.1, "unit": "µg/mL"}, {"measurement": "MIC", "setting": "[8]; [14]", "result": 0.12, "unit": "µg/mL"}]}]}
